Data as given in US8992977B2, “Multi-day delivery of biologically active substances” (Samos Pharmaceuticals, LLC, priority 2007, dated 2015).
Like-named read-outs stand apart in the source and are kept apart here.

Columns and labels:
[1] = cited from earlier work
[2] = Hydrolysis of ethinyl estradiol (EE) from conjugate 1; type: physicochemical; settings: for Ethinyl Estradiol Released (%): 2:1 ethanol/0.05 M phosphate buffer pH 7.4, 37° C.
Experimental: Estradiol conjugate 1 (23.0 mg, 0.027 mmol) was dissolved in 48 mL of a 2:1 ethanol/0.05 M aqueous phosphate buffer (pH 7.4) mixture, and the solution was shaken in a 37° C. incubator for 6 days. Estradiol release was determined by integration of ^1H NMR signals obtained from three 8.5 mL aliquots, which were collected at 2-, 3-, and 6-day intervals.

[3] = Calculation of pharmacokinetic profile of orally delivered 3 1/2 day or 7 day pill; settings: k 0.42
Excerpt: Since the release of EE is from a non-constant activity source, i.e., the concentration of the conjugate is continuously decreasing, the release of EE from the conjugate will obey a first order release and thus be proportional to the concentration of conjugate at any time t. These equations have been solved and the final equation describing the release of the EE is given by the equation Mt/M0=1−1/exp(kt), where Mt is the amount of EE released from the conjugate, M0 is the total amount of EE, Mt/M0 is the percent EE released from the conjugate, k is a proportionality constant and t is the time. The constant k was calculated from the data shown in example 17 to be 0.42. […] The pharmacokinetic profiles obtained using pills containing 150 (7 day pill) and 110 (3½ day pill) microgram equivalents of EE are shown in FIG. 1A and FIG. 1B.
As was shown in Example 18, the release from the EE conjugate is governed by the equation Mt/M0=1−1/exp(kt). The value of k was 0.42 as determined from the data of example 17. As discussed in the detailed description of illustrative embodiments, the release can be controlled by many different factors. To obtain half the release rate of EE as compared with that of conjugate of example 17, a value of k=0.22 was used. Using k=0.22 and the pharmacokinetic parameters shown in Example 18, the graphs shown in FIG. 2A and FIG. 2B were obtained. […]

[4] = cited from earlier work; remark: listed apart in the source
[5] = cited from earlier work; for short half life from triacylglycerols (TAG) / following half life from triacylglycerols (TAG): bi-exponential pattern; for short half life from triacylglycerols (TAG): first phase; for following half life from triacylglycerols (TAG): second phase
[6] = Hydrolysis of ethinyl estradiol (EE) from conjugate of Example 16; type: physicochemical; settings: for Ethinyl Estradiol Released (%): 9:4 ethanol/0.05 M phosphate buffer pH 7.4, 37° C.
Experimental: Estradiol conjugate (33.5 mg, 0.039 mmol), prepared from Conjugate 1 as described in Example 16, was dissolved in 58 mL of a 9:4 ethanol/0.05 M aqueous phosphate buffer (pH 7.4) mixture, and the solution was shaken in a 37° C. incubator for 9 days. Six 8 mL aliquots were collected at 1-, 2-, 3-, 5-, 7-, and 9-day intervals. Estradiol release was quantified by adding 33 μL of a 0.09 M solution of butylated hydroxytoluene (BHT) in deuterochloroform as an internal standard, then comparing integrals of 1H NMR signals corresponding to the steroid and the internal standard.

[7] = Physicians Desk Reference p. 3372, 57 ed., 2003
[8] = carotenoids, J. of Nutrition 2001, 131, 2096

C#C[C@]1(O)CC[C@H]2[C@@H]3CCC4=CC(=O)CC[C@@H]4[C@H]3CC[C@@]21CC [levonorgestrel]
plasma concentrations ([1]; ovulation suppression use): about 1 microgram per ml

C#C[C@]1(O)CC[C@H]2[C@@H]3CCc4cc(OC(=O)CCC(=O)OC(c5cc(C(F)(F)F)nc6c(C(F)(F)F)cccc56)C5CCCCN5C(=O)OC(C)(C)C)ccc4[C@H]3CC[C@@]21C (stereo partly drawn) [conjugate 1]
period over which ethinyl estradiol is released ([2]; 2:1 ethanol/phosphate buffer pH 7.4, 37° C.): over a several day period
Ethinyl Estradiol Released (%) ([2]; Day 2): 57%
Ethinyl Estradiol Released (%) ([2]; Day 3): 67%
Ethinyl Estradiol Released (%) ([2]; Day 6): 100%
proportionality constant k of first order release Mt/M0=1−1/exp(kt) ([2]; calculated from the data of example 17): 0.42
peak to valley ratio ([3]; 1 pill every 7 days, 150 microgram equivalents of EE): 5.1
peak to valley ratio (Css.max to Css.min) ([3]; pill once every 3½ days, 110 microgram equivalents of EE): less than two

C#C[C@]1(O)CC[C@H]2[C@@H]3CCc4cc(O)ccc4[C@H]3CC[C@@]21C [ethinyl estradiol]
CL/F [1, 7]: 8.1 mL/min/kg
half life [1, 7]: 0.779 days

CC(C)=CCC/C(C)=C/C=C/C(C)=C/C=C/C(C)=C/C=C/C=C(C)/C=C/C=C(C)/C=C/C=C(\C)CCC=C(C)C [lycopene]
half life [4, 8]: 26 days

CC/C=C\C/C=C\C/C=C\C/C=C\C/C=C\CCCC(=O)O [EPA, eicosapentaenoic acid]
mean half life in cholesteryl esters (CE) ([5]; Br. J. Nutr. 1999): 3.27 days
short half life from triacylglycerols (TAG) [5]: less than a day
following half life from triacylglycerols (TAG) [5]: several days

CC1=C[C@H](O)CC(C)(C)[C@H]1/C=C/C(C)=C/C=C/C(C)=C/C=C/C=C(C)/C=C/C=C(C)/C=C/C1=C(C)C[C@@H](O)CC1(C)C [lutein]
half life [4, 8]: 76 days

C#C[C@]1(O)CC[C@H]2[C@@H]3CCc4cc(OC(=O)CCC(=O)OC(c5cc(C(F)(F)F)nc6c(C(F)(F)F)cccc56)C5CCCCN5)ccc4[C@H]3CC[C@@]21C (stereo partly drawn) [Conjugate of Example 16]
rate of hydrolysis compared with Conjugate 1 [6]: slower than that of Conjugate 1
Ethinyl Estradiol Released (%) ([6]; Day 1): 30%
Ethinyl Estradiol Released (%) ([6]; Day 2): 50%
Ethinyl Estradiol Released (%) ([6]; Day 3): 63%
Ethinyl Estradiol Released (%) ([6]; Day 5): 77%
Ethinyl Estradiol Released (%) ([6]; Day 7): 88%
Ethinyl Estradiol Released (%) ([6]; Day 9): 98%

CC1=C(/C=C/C(C)=C/C=C/C(C)=C/C=C/C=C(C)/C=C/C=C(C)/C=C/C2=C(C)CCCC2(C)C)C(C)(C)CCC1 [beta carotene]
half life [4, 8]: 37 days

CC(C)=CCC/C(C)=C/C=C/C(C)=C/C=C/C(C)=C/C=C/C=C(C)/C=C/C=C(C)/C=C/C=C(\C)CCC=C(C)C [E lycopene]
half life ([4]; in vivo): 5 days

CC1=CCCC(C)(C)[C@H]1/C=C/C(C)=C/C=C/C(C)=C/C=C/C=C(C)/C=C/C=C(C)/C=C/C1=C(C)CCCC1(C)C [alpha carotene]
half life [4, 8]: 45 days

CC1=C(/C=C/C(C)=C/C=C/C(C)=C/C=C/C=C(C)/C=C/C=C(C)/C=C/C2=C(C)CC(O)CC2(C)C)C(C)(C)CC(O)C1 (stereo not drawn) [zeaxanthin]
half life [4, 8]: 38 days

CC/C=C\C/C=C\C/C=C\C/C=C\C/C=C\C/C=C\CCC(=O)O [DHA, docosahexaenoic acid]
short half life from triacylglycerols (TAG) [5]: less than a day
following half life from triacylglycerols (TAG) [5]: several days

CC(C)=CCC\C(C)=C/C=C/C(C)=C/C=C/C(C)=C/C=C/C=C(C)/C=C/C=C(C)/C=C/C=C(\C)CCC=C(C)C [5-Z lycopene]
half life ([4]; in vivo): 9 days

CCCCC/C=C\C/C=C\CCCCCCCC(=O)O [linoleic acid]
t1/2 ([5]; essential fatty acids as drug carriers): 1 days
